What was measured:
Mfn2 null MEFs = experiment: Mitochondrial elongation (aspect ratio) fusogenicity assay; assay type: cell-based, mouse
Excerpt: A cultured murine embryonic fibroblast assay system was used in which mitochondrial elongation (an increase in aspect ratio) reflects enhanced mitochondrial fusion.
A pharmacophore model was generated based on the interactions of HR1 and HR2 domains in the calculated structural model of Mfn2 in the closed conformation. The key features included hydrophobic interactions involving Mfn2 HR1: Val372 and Met376, and aromatic interactions and hydrogen bonding involving Mfn2 HR1 His380. […] A library comprising ˜14 million commercially available compounds was prepared in silico and evaluated using PHASE to fit these criteria. Top ranked hits were clustered, and filtered based on pharmacological properties using Qikprop. The top 55 (see TABLE 4) commercially available small molecules conforming to the model were selected for functional screening and purchased in 1 mg aliquots. Each compound was dissolved to a stock concentration of 10 mM in DMSO and applied to Mfn2 null MEFs overnight at a final concentration of 1 mM. […] Images were acquired by confocal microscopy. Each compound was scored for fusogenicity (see e.g., FIG. 24A) and % cell death (see e.g., FIG. 24B).
Wild-type MEFs were prepared from E10.5 c57/bl6 mouse embryos. […] MEFs were subcultured in DMEM (4.5 g/L glucose) plus 10% fetal bovine serum, 1× nonessential amino acids, 2 mM L-glutamine, 100U/ml penicillin and 100 ug/ml streptomycin.
Cells were excited with 408 nm (Hoechst), […] (MitoTracker Green and Calcein AM, GFP), or 637 nm (TMRE, MitoTracker Orange, Ethidium homodimer-1, and AF594-Dextran) laser diodes. For mitochondrial elongation studies mitochondrial aspect ratio (long axis/short axis) was calculated using automated edge detection and Image J software. Mitochondrial depolarization was calculated as % of green mitochondria visualized on MitoTracker Green and TMRE merged images, expressed as green/(green+yellow mitochondria)×100.

Mfn2 HR2 target peptide = molecular target: T1, Mfn2 HR2 target peptide (Homo sapiens, UniProt O95140); experiment: HR1 peptide-HR2 target binding assay
T1 construct: Gly linker (GGGG after the His tag)
T1 sequence (O95140 with tags, fused parts or gaps limits assumed): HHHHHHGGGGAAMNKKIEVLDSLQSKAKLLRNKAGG
Excerpt: The Mfn-derived fusion-promoting and -inhibiting mini-peptides (simulated to obtain the chemical Mfn agonists in TABLE 1 and TABLE 2) were modified from amino acid heptad repeats (HR) in the HR1 domain and predicted to interact with their counterparts in the carboxyl terminus HR2 domain within the Mfn stalk region (see e.g., FIG. 1, top panel). A high-throughput binding assay was designed whereby the target HR2 peptide sequences, modified to include amino terminal 6×His tags and Gly linkers, were bonded to Ni-chelate resin (20 μg/ml) and used as immobilized “receptor” for amino-FITC-tagged Mfn2 374-384 (agonist ligand) in which the Ser analogous to Ser378 was replaced with Asp to confer the negative charge essential for activity. For antagonist studies the ligand was amino-FITC-tagged Mfn2 406-418. The FITC peptide ligands are suspended at 1 mM in 30% DMSO, 70% water (to minimize spontaneous aggregation) and diluted into binding buffer (de-ionized water) to a final concentration of 25 μM in the presence or absence of competing compound. Dose-dependent loss of resin-bound FITC signal (485 nm excitation/538 nm emission) measured in a 96 well spectrofluorometer represents binding of compound to its HR2 target (see e.g., FIG. 10, FIG. 11). Either the ligand peptide or the receptor peptide can be modified to represent mutations, variations, or posttranslational modifications of Mfn2. […]
Target HR2 peptide sequence modified to include amino terminal 6×His tags and Gly linkers, were bonded to Ni-NTA resin (4.4 μg/ml) (Quiagen) and used as immobilized “receptor” for amino-FITC-tagged Mfn2 374-384 (ligand) in which the Ser analogous to Ser378 was replaced with Asp to confer the negative charge essential for activity. […] Resin-bound FITC signal (485 nm excitation/538 nm emission) measured in a 96 well spectrofluorometer (Spectramax M5e, Molecular Devices) represented binding to HR2 target. Competition binding isotherms were plotted and IC50 values calculated using Prism 7 (Graph Pad).

[1] = system: cultured neurons expressing MFN2 T105M or MFN2 R94Q; experiment: Cultured mouse neurons expressing CMT2A MFN2 mutants; assay type: cell-based
Protocol: Neonatal mouse hippocampal neurons were cultured from brains of one day old Mfn2 T105M or non-transgenic sibling mouse pups as described. After 10 days of differentiating culture neurons were infected with Adeno-Cre to induce Mfn2 T105M expression or Adeno-βgal as a control (50 MOI). After an additional 72 hours mitofusin agonists or DMSO vehicle were added. For static confocal imaging neuronal mitochondria were labeled with adenoviral-expressed mitoGFP plus TMRE. Autophagy was measured by LC3 aggregation in neurons infected with adenoviral LC3-GFP. For time-lapse studies of mitochondrial trafficking bi-cistronic Adeno-Cre/GFP marked Cre expression and mitochondria were labeled with adeno-mitoDsRed. Confocal live cell images were acquired with a time-lapse of 1 frame every 90 seconds for 1 hour.

competition for minipeptide binding at MFN2 HR2 site (Mfn2 HR2 target peptide): competed for minipeptide binding
SMILES: CC1CCCCC1NC(=O)NCCSc1nnc(C2CC2)n1-c1ccccc1 (racemic) [B-A/I, 1-(2-((5-cyclopropyl-4-phenyl-4H-1,2,4-triazol-3-yl)thio)ethyl)-3-(2-methylcyclohexyl)urea]
fusogenic activity (mitochondrial elongation), in words (Mfn2 null MEFs): potently stimulated mitochondrial fusion
mitochondrial fragmentation/dysmorphology, hypopolarization, autophagy in neurons ([1]; MFN2 R94Q or T105M): concomitantly corrected
mitochondrial clumping and motility in neurons ([1]; MFN2 T105M): restored mitochondrial motility
